For three molecules, inhibition and GI50 results are on record in patent US20190119284A1, “ErbB Inhibitors and Uses Thereof” (The Regents of the University of California, priority 2016, published 2019).

Assay [1] addresses MAPKAPK-2 (Homo sapiens, UniProt P49137). Briefly: Nanosyn in vitro kinase profiling: MAPKAPK-2. The format is biochemical. As to conditions: for inhibition at 1 µM: compound at 1 μM. The protocol: (§1) This was confirmed by in vitro profiling against a panel of kinases, with compound 2 only showing potent inhibition of EGFR and Ab1 (Table 2).
(§2) In vitro Kinome Screen. In vitro profiling of compound 2 at 100 nM was conducted by Nanosyn.

In assay [2] the target is T1, ITK (Homo sapiens, UniProt Q08881).
T1 sequence (Q08881 1-620): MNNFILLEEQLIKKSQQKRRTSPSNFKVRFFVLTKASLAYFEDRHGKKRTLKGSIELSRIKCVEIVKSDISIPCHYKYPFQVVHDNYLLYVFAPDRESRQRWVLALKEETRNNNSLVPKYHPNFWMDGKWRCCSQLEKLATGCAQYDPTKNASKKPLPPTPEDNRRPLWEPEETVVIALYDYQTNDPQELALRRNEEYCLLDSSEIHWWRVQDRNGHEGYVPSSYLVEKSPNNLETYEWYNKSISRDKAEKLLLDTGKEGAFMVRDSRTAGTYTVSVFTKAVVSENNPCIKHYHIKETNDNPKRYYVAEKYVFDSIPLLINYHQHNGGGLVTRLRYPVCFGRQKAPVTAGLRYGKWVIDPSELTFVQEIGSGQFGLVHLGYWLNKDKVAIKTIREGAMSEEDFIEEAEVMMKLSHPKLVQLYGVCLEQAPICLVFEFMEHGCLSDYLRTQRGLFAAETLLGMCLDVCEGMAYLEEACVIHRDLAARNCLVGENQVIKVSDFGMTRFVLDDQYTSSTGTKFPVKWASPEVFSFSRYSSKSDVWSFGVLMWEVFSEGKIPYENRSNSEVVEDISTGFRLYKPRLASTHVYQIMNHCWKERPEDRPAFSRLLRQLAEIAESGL
Briefly: Nanosyn in vitro kinase profiling: ITK. It counts as biochemical. As to conditions: for inhibition at 1 µM: compound at 1 μM. The protocol:
as §1, §2

Assay [3] deals with DAPK1 (Homo sapiens, UniProt P53355). Kind of assay: Nanosyn in vitro kinase profiling: DAPK1. The format is biochemical. The settings on record: for inhibition at 1 µM: compound at 1 μM. The protocol: as §1, §2
The target in assay [4] is LCK (Homo sapiens, UniProt P06239). Kind of assay: Nanosyn in vitro kinase profiling: LCK. It counts as biochemical. The settings on record: for inhibition at 1 µM: compound at 1 μM. The protocol:
as §1, §2

For assay [5], the target named is PKC-ALPHA (Homo sapiens, UniProt P17252). Kind of assay: Nanosyn in vitro kinase profiling: PKC-ALPHA. It counts as biochemical. The settings on record: for inhibition at 1 µM: compound at 1 μM. On the procedure:
as §1, §2

In assay [6] the target is CK1-EPSILON (Homo sapiens, UniProt P49674). Briefly: Nanosyn in vitro kinase profiling: CK1-EPSILON. The format is biochemical. The settings on record: for inhibition at 1 µM: compound at 1 μM. On the procedure: as §1, §2
In assay [7] the target is IGF1R (Homo sapiens, UniProt P08069). Kind of assay: Nanosyn in vitro kinase profiling: IGF1R. The format is biochemical. As to conditions: for inhibition at 1 µM: compound at 1 μM. The protocol:
as §1, §2

Assay [8] addresses GSK-3-BETA (Homo sapiens, UniProt P49841). Briefly: Nanosyn in vitro kinase profiling: GSK-3-BETA. As to conditions: for inhibition at 1 µM: compound at 1 μM. The format is biochemical. On the procedure: as §1, §2
The target of assay [9] is T2, Axl+ Ba/F3 cells (Homo sapiens, UniProt P30530).
T2 sequence (P30530 1-894): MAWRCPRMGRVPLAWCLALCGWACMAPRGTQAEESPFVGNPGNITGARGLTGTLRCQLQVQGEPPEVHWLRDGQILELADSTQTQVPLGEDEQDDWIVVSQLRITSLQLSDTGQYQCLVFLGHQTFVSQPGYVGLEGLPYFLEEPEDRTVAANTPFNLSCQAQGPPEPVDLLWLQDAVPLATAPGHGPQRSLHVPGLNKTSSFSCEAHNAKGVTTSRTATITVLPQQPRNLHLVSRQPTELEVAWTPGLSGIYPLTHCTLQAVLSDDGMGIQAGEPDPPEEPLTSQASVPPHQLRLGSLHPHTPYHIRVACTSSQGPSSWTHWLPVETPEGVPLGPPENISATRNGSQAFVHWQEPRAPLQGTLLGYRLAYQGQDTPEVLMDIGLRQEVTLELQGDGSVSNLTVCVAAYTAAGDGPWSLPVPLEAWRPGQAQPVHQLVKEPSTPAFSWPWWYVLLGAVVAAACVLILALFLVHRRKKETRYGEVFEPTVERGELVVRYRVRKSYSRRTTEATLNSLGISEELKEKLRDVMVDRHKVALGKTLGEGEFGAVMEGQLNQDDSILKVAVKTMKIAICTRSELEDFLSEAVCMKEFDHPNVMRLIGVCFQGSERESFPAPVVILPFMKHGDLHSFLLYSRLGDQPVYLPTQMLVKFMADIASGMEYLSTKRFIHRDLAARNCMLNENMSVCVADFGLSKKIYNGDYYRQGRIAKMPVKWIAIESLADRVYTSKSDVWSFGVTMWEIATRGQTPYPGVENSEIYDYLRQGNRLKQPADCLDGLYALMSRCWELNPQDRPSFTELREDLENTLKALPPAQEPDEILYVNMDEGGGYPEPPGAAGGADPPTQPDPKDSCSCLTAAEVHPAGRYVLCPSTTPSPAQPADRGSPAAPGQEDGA
Kind of assay: Ba/F3 proliferation assay, Axl+. It counts as cell-based. The settings on record: Table 4; ± S.D., n = 3; 48 h Cell Titer Glo; read-out: IC50, Axl. Put shortly:
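Ba/F3 cells transduced with Axl and selected for IL-3-independent growth. Cells combined with drug dilutions, and with IL-3 (10 ng/mL) or NRG (6.25 ng/mL) where needed, for 48 h at 37 °C. CellTiter-Glo read, normalized to DMSO, fitted with variable-slope log(inhibitor) regression.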

LCK, sequence (P06239 whole entry): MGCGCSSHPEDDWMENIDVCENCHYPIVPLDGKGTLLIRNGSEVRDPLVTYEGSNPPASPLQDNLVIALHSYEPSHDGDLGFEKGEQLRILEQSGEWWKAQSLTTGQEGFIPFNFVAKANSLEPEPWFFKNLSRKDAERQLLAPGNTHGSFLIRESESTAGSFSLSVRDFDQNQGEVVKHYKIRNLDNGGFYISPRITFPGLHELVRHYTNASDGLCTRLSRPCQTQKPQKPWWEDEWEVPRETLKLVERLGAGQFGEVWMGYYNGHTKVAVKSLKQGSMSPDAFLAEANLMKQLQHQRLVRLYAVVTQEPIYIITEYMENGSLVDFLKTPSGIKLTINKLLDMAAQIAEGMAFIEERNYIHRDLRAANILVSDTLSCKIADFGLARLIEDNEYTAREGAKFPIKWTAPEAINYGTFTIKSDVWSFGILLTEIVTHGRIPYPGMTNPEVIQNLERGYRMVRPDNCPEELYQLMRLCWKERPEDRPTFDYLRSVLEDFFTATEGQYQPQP
MAPKAPK-2, sequence (P49137 whole entry, species assumed): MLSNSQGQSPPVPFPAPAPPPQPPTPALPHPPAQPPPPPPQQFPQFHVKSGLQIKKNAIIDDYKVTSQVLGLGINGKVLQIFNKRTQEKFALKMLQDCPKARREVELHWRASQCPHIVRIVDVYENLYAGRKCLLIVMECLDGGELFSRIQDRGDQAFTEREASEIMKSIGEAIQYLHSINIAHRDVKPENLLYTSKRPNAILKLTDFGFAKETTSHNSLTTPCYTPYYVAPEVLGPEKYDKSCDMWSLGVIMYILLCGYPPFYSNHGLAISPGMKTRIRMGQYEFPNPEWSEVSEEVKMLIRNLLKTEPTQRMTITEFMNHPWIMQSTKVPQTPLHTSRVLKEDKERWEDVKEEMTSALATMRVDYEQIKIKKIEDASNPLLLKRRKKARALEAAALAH
DAPK1, sequence (P53355 whole entry, species assumed): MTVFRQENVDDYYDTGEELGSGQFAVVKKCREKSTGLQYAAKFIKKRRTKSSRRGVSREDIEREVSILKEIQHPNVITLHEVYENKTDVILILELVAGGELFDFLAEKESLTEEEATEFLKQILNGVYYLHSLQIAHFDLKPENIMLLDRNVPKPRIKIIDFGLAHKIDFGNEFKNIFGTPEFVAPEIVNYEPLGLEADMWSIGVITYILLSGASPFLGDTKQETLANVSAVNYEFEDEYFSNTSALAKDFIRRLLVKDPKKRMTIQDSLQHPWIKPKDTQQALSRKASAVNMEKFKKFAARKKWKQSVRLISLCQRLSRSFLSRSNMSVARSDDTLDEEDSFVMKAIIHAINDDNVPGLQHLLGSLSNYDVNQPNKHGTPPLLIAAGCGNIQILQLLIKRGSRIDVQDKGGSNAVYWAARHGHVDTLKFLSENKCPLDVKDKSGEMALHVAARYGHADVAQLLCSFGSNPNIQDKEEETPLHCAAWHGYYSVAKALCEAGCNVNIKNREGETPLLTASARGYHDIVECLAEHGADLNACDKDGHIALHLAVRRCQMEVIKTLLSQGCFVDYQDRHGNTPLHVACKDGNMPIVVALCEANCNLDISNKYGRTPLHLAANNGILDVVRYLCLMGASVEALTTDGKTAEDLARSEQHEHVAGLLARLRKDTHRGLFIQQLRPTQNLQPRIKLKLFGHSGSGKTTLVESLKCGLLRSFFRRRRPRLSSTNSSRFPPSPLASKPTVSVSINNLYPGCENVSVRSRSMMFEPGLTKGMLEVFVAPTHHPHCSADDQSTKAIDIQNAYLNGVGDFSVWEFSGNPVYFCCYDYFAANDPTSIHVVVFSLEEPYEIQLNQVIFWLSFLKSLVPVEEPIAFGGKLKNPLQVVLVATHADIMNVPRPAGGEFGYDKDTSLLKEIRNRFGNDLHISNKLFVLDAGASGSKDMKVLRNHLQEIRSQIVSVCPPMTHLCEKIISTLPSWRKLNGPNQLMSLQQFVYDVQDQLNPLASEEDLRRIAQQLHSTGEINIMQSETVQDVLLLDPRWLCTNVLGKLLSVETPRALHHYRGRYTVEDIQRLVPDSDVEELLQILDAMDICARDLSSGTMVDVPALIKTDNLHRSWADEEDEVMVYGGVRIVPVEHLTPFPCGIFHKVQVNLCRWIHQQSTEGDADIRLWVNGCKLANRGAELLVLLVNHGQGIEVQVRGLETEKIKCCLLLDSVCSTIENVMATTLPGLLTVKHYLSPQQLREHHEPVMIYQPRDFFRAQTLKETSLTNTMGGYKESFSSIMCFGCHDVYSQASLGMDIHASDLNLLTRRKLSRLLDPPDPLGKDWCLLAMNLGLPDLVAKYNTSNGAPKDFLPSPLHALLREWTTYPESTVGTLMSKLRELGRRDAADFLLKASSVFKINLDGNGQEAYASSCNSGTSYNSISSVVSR
IGF1R, sequence (P08069 31-1367): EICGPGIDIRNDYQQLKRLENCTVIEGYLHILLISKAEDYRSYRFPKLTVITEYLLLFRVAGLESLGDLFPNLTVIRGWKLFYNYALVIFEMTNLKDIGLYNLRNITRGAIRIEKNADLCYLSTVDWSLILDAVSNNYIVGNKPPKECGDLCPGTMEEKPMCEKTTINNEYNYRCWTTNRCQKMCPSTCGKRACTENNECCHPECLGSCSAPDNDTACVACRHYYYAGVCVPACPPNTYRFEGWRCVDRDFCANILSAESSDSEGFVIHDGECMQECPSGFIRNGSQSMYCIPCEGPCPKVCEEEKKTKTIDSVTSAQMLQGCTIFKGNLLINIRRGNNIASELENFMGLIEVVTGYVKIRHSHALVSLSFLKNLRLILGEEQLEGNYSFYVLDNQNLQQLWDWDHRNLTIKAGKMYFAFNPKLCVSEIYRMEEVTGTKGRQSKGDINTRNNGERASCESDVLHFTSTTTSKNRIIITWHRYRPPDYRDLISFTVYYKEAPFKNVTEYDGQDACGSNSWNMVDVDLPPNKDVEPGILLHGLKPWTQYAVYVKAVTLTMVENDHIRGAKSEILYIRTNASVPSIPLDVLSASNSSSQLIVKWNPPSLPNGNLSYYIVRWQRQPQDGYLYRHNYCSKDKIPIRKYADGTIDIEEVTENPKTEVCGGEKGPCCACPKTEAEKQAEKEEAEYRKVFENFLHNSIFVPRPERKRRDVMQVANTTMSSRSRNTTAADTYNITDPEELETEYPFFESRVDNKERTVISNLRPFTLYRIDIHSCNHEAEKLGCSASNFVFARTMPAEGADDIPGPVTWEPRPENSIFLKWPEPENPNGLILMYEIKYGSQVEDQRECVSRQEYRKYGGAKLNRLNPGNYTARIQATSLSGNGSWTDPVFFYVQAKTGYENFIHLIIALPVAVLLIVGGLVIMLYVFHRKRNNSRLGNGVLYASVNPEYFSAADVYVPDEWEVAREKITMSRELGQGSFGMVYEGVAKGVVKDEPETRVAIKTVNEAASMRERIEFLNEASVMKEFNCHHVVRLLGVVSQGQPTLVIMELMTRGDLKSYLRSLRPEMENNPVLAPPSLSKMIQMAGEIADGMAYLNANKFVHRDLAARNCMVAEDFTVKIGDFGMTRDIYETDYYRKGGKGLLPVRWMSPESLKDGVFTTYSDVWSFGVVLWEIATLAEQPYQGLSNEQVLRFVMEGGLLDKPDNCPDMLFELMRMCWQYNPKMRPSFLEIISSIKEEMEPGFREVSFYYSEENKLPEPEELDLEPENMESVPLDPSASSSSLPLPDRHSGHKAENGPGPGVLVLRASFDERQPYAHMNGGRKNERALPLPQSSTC
CK1-EPSILON, sequence (P49674 whole entry): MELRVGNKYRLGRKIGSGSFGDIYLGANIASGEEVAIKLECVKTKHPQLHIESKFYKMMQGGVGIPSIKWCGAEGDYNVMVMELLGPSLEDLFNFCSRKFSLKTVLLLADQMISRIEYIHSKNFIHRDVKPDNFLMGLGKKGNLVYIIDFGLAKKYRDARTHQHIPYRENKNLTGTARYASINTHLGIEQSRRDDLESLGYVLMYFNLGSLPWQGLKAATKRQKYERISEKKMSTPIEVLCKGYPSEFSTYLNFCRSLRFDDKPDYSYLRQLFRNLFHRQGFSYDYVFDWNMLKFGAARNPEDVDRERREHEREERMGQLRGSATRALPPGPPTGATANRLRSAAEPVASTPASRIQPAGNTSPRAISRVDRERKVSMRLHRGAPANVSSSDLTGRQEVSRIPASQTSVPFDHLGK

Regarding `COc1ccc(-c2ccco2)cc1Nc1ncnc2[nH]nc(-c3ccco3)c12` [compound 2, 3-(furan-2-yl)-N-(5-(furan-2-yl)-2-methoxyphenyl)-1H-pyrazolo[3,4-d]pyrimidin-4-amine], the inhibition (in general, the drop in the measured response relative to a control, in per cent) at 0.1 µM is 0.12% in assay [1] (compound at 100 nM); 1.24% in assay [2] (compound at 100 nM); -0.52% in [3] (compound at 100 nM); 74.2% in [4] (compound at 100 nM); 1.24% in [5] (compound at 100 nM); 3.45% in assay [6] (compound at 100 nM). For the same molecule, the inhibition at 0.1 µM in assay [7] (compound at 100 nM) is 13.3%; in assay [8] (compound at 100 nM), 20.5%. In addition, the inhibition at 1 µM in assay [1] amounted to 0.575%; in assay [2], 13.9%; in [3], 1.43%; in assay [4] it was 93.6%; in assay [5], 5.57%; in [6], 24.1%. The inhibition at 1 µM in [7] stood at 53.3%; in assay [8] it was 68.8%.
With `COc1ccc(-c2ccoc2)cc1Nc1ncnc2[nH]cc(-c3cc[nH]n3)c12` [compound 3, N-(5-(furan-3-yl)-2-methoxyphenyl)-5-(1H-pyrazol-3-yl)-7H-pyrrolo[2,3-d]pyrimidin-4-amine], the inhibition at 1 µM in assay [1] was -6%; in assay [2], 24%; in [3] it was -1%; in assay [4], 98%; in [5] it was 30%; in assay [6], 11%. Besides, the values for the inhibition at 1 µM in [7] and in assay [8] were 46% and 40%, respectively. For the same molecule, the GI50 in assay [9] came out at 1170 ± 106 nM.
As to `CS(=O)(=O)CCNCc1ccc(-c2ccc3ncnc(Nc4ccc(OCc5cccc(F)c5)c(Cl)c4)c3c2)o1` [lapatinib], the GI50 in assay [9] is above 3330 nM.
